Assay [1] deals with SU-DHL6. Kind of assay: Inhibition of tumor cell proliferation, CellTiter-Glo, SU-DHL6. The class given is cell-based. To be noted: compound concentration 50 μM, 72 hours; for cell survival rate (% of control) at 50 µM: Homo sapiens, SU-DHL-6, read-out: Inhibitory activity against proliferation (cell survival rate) SU-DHL6. A digest of the protocol: (§1)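 Compound tested at 50 μM for 72 h, read by CellTiter-Glo. Survival rate = (treated−blank)/(control−blank) RLU ×100, binned as +++ ≤30%, ++ >30-≤60%, + 60-<90%. Seeding 2000-10000 cells/well depending on growth rate.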

Assay [2] concerns the target LC3B (Homo sapiens (Human), UniProt Q9GZQ8). Kind of assay: Fluorescence polarization experiment targeting LC3B (GST-LC3B with FITC-labeled peptide).
The test system of assay [3] is BxPC-3. Kind of assay: Inhibition of tumor cell proliferation, CellTiter-Glo, BxPC-3. Format: cell-based. To be noted: compound concentration 50 μM, 72 hours; for cell survival rate (%) at 50 µM: Homo sapiens, BXPC-3, read-out: Inhibitory activity against proliferation (cell survival rate) BxPC-3. In short, it runs like this:
as §1
(In general: Cellular ATP, detected with luciferase, serves as a proxy for viable cell number.)

Assay [4] relates to A549. Kind of assay: Inhibition of tumor cell proliferation, CellTiter-Glo, A549. The class given is cell-based. To be noted: compound concentration 50 μM, 72 hours; for cell survival rate (% of control) at 50 µM: Homo sapiens, A549, read-out: Inhibitory activity against proliferation (cell survival rate) A549. In short, it runs like this: as §1
Assay [5] has as its system MDA-MB-453. Kind of assay: Inhibition of tumor cell proliferation, CellTiter-Glo, MDA-MB-453. Format: cell-based. To be noted: compound concentration 50 μM, 72 hours; for cell survival rate (%) at 50 µM: Homo sapiens, MDA-MB-453, read-out: Inhibitory activity against proliferation (cell survival rate) MDA-MB-453. A digest of the protocol: as §1
For assay [6], the system named is RPMI-8226. Kind of assay: Inhibition of tumor cell proliferation, CellTiter-Glo, RPMI-8226. The class given is cell-based. To be noted: compound concentration 50 μM, 72 hours; for cell survival rate (% of control) at 50 µM: Homo sapiens, RPMI-8226, read-out: Inhibitory activity against proliferation (cell survival rate) RPMI-8226. A digest of the protocol:
as §1

Assay [7] deals with K562. Kind of assay: Inhibition of tumor cell proliferation, CellTiter-Glo, K562. The class given is cell-based. To be noted: compound concentration 50 μM, 72 hours; for cell survival rate (%) at 50 µM: Homo sapiens, K562, read-out: Inhibitory activity against proliferation (cell survival rate) K562. In short, it runs like this:
as §1

Where [8] appears, read: GST-LC3B 180 nM, FITC-labeled peptide 18 nM, 25° C.

This note sets out measurements from patent US11021457B2, “Class of isoindolone-imide ring-1,3-dione-2-ene compounds, composition and use thereof” (WIGEN BIOMEDICINE TECHNOLOGY (SHANGHAI) CO., LTD., priority 2017, dated 2021).

A word on the IC50: it is the concentration needed to halve the response being measured. Read a low IC50 as greater potency in that assay.

The structures appear in SMILES notation. Read-outs that look alike come from different tables or passages of the source.

Take `O=C1CCC(N2C(=O)c3cccc(NC(=O)CNC=C4C(=O)CC(c5ccccc5)CC4=O)c3C2=O)C(=O)N1` (stereo not drawn) [Compound 49]: the “Inhibitory activity against proliferation (cell survival rate) SU-DHL6” value in assay [1] is “++ (30<survival rate (%)≤60)”. Moreover, the IC50 in assay [2] (setting [8]) was in the range of 100 to 1000 µM. In addition, in assay [3], the “Inhibitory activity against proliferation (cell survival rate) BxPC-3” value was “+ (60≤survival rate (%)<90)”. Further, the “Inhibitory activity against proliferation (cell survival rate) A549” value in assay [4] is “++ (30<survival rate (%)≤60)”. Besides, in assay [5], the “Inhibitory activity against proliferation (cell survival rate) MDA-MB-453” value was “++ (30<survival rate (%)≤60)”. Besides, the “Inhibitory activity against proliferation (cell survival rate) RPMI-8226” value in assay [6] is on record as “++ (30<survival rate (%)≤60)”.
Consider `CC(C)[C@H](NC(=O)CN1CCN(CCNC=C2C(=O)CC(c3ccccc3)CC2=O)CC1)C(=O)N[C@@H](CCCNC(N)=O)C(=O)Nc1cccc2c1CN(C1CCC(=O)NC1=O)C2=O` (stereo partly drawn) [Compound 60], for which, in assay [1], the “Inhibitory activity against proliferation (cell survival rate) SU-DHL6” value was “++ (30<survival rate (%)≤60)”. The IC50 in assay [2] (setting [8]) lay in the range of 15 to 100 µM. In assay [3], the “Inhibitory activity against proliferation (cell survival rate) BxPC-3” value was “++ (30<survival rate (%)≤60)”. Further, the “Inhibitory activity against proliferation (cell survival rate) MDA-MB-453” value in assay [5] is reported as “+ (60≤survival rate (%)<90)”. Further, the “Inhibitory activity against proliferation (cell survival rate) K562” value in assay [7] is “+ (60≤survival rate (%)<90)”. Moreover, the “Inhibitory activity against proliferation (cell survival rate) RPMI-8226” value in assay [6] was “+++ (survival rate (%)≤30)”.
In the case of `O=C1CCC(N2C(=O)c3cccc(NC(=O)[C@@H]4C[C@H](O)CN4CCNC=C4C(=O)CC(c5ccccc5)CC4=O)c3C2=O)C(=O)N1` (stereo partly drawn) [Compound 64], the “Inhibitory activity against proliferation (cell survival rate) SU-DHL6” value in assay [1] was “+++ (survival rate (%)≤30)”. The compound further gave an IC50 in assay [2] (setting [8]) of 15 to 100 µM. Moreover, the “Inhibitory activity against proliferation (cell survival rate) BxPC-3” value in assay [3] is listed as “+ (60≤survival rate (%)<90)”. Further, the “Inhibitory activity against proliferation (cell survival rate) MDA-MB-453” value in assay [5] is on record as “+++ (survival rate (%)≤30)”. Besides, the “Inhibitory activity against proliferation (cell survival rate) K562” value in assay [7] is “+++ (survival rate (%)≤30)”. Besides, the “Inhibitory activity against proliferation (cell survival rate) RPMI-8226” value in assay [6] is listed as “++ (30<survival rate (%)≤60)”.
As to `CC(Nc1cccc2c1C(=O)N(C1CCC(=O)NC1=O)C2=O)=C1C(=O)CC(c2ccccc2)CC1=O` (stereo not drawn) [Compound 76], the “Inhibitory activity against proliferation (cell survival rate) SU-DHL6” value in assay [1] is “+++ (survival rate (%)≤30)”. The compound also came in with an IC50 in assay [2] (setting [8]) of 100 to 1000 µM. The “Inhibitory activity against proliferation (cell survival rate) BxPC-3” value in assay [3] is reported as “++ (30<survival rate (%)≤60)”. Also, the “Inhibitory activity against proliferation (cell survival rate) A549” value in assay [4] is on record as “+++ (survival rate (%)≤30)”. In assay [7], the “Inhibitory activity against proliferation (cell survival rate) K562” value is given as “+++ (survival rate (%)≤30)”. Besides, the “Inhibitory activity against proliferation (cell survival rate) RPMI-8226” value in assay [6] is recorded as “+++ (survival rate (%)≤30)”.
Turning to `CN1C(=O)/C(=C\Nc2cccc3c2CN(C2CCC(=O)NC2=O)C3=O)C(=O)c2ccc(C(F)(F)F)cc21` (stereo not drawn) [Compound 136], the cell survival rate (% of control) at 50 µM in assay [1] is 60 to 90%; in assay [6] it was at most 30%. This compound also gave an IC50 in assay [2] of 3 to 15 µM. In addition, the cell survival rate (%) at 50 µM in assay [3] is 60 to 90%; in assay [5], at most 30%; in assay [7] it was 30 to 60%.
Take `O=C1CCC(N2Cc3c(N/C=C4\C(=O)Nc5c(ccc6ccccc56)C4=O)cccc3C2=O)C(=O)N1` (stereo not drawn) [Compound 138]: the cell survival rate (% of control) at 50 µM in assay [1] was at most 30%; in assay [4] it was at most 30%; in assay [6], 30 to 60%. The cell survival rate (%) at 50 µM in assay [3] is 60 to 90%; in assay [5] it was at most 30%; in assay [7] it was 30 to 60%.
In the case of `CC1(C#N)C(=O)/C(=C/Nc2cccc3c2CN(C2CCC(=O)NC2=O)C3=O)C(=O)CC1c1ccccc1` (stereo not drawn) [Compound 139], the cell survival rate (% of control) at 50 µM in assay [1] is at most 30%; in assay [4] it was 60 to 90%; in assay [6], at most 30%. Further, the cell survival rate (%) at 50 µM in assay [3] was 60 to 90%; in assay [5], at most 30%; in assay [7], at most 30%.
